Reference: US6355799B1, “Substituted benzene compounds, process for their preparation, and herbicidal and defoliant compositions containing them” (ISK Americas Incorporated, priority 1997, dated 2002)

Assays:
Assay type in all cases: in vivo
[1] = system: green foxtail (Setaria viridis, SETVI); test: Post-emerge test, greenhouse herbicide activity screening; details: post-emerge, phytotoxicity rating 0-100 at 14 days after application
In short: (§1)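 Rating: 0–100 visual injury, 14 DAA. Application: acetone, 187 l/ha, 15–1000 g ai/ha, flat-fan track sprayer with nozzle 40–45 cm above soil or canopy. Post-emerge runs used 0.25% v/v surfactant on 2–3 leaf plants.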

[2] = system: velvetleaf (Abutilon theophrasti, ABUTH); test: as above; details: post-emerge, phytotoxicity rating 0-100 at 14 days after application
In short: as §1

[3] = system: lambsquarters (Chenopodium album, CHEAL); test: as above; details: post-emerge, phytotoxicity rating 0-100 at 14 days after application
In short: as §1

[4] = system: large crabgrass (Digitaria sanguinalis, DIGSA); test: as above; details: post-emerge, phytotoxicity rating 0-100 at 14 days after application
In short: as §1

[5] = system: sicklepod (Cassia obtusifolia, CASOB); test: as above; details: post-emerge, phytotoxicity rating 0-100 at 14 days after application
In short: as §1

[6] = system: barnyardgrass (Echinochloa crus-galli, ECHCG); test: as above; details: post-emerge, phytotoxicity rating 0-100 at 14 days after application
In short: as §1

[7] = system: redroot pigweed (Amaranthus retroflexus, AMARE); test: as above; details: post-emerge, phytotoxicity rating 0-100 at 14 days after application
In short: as §1

[8] = system: johnsongrass (Sorghum halepense, SORHA); test: as above; details: post-emerge, phytotoxicity rating 0-100 at 14 days after application
In short: as §1

[9] = system: ivyleaf morningglory (Ipomoea hederacea, IPOHE); test: as above; details: post-emerge, phytotoxicity rating 0-100 at 14 days after application
In short: as §1

[10] = system: upland rice (Oryza sp., var. Tebonnet, RICE); test: Pre-emerge test, crop safety; details: crop damage, pre-emerge, phytotoxicity rating 0-100 at 14 days after application
In short: as §1

[11] = system: field corn (Zea mays L., var. Dekalb 535, CORN); test: Pre-emerge test, crop safety; details: crop damage, pre-emerge, phytotoxicity rating 0-100 at 14 days after application
In short: as §1

[12] = system: green foxtail (Setaria viridis, SETVI); test: Pre-emerge test, greenhouse herbicide activity screening; details: pre-emerge, phytotoxicity rating 0-100 at 14 days after application
In short: (§2)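 Compounds in acetone were track-sprayed at 15-1000 g ai/ha (187 l/ha) on sandy loam pots: pre-emerge one day after seeding, post-emerge at 2-3 leaf stage with 0.25% v/v non-ionic surfactant. Phytotoxicity was rated 14 days later on a 0 (no damage) to 100 (complete death) scale.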

[13] = system: velvetleaf (Abutilon theophrasti, ABUTH); test: as above; details: pre-emerge, phytotoxicity rating 0-100 at 14 days after application
In short: as §2

[14] = system: lambsquarters (Chenopodium album, CHEAL); test: as above; details: pre-emerge, phytotoxicity rating 0-100 at 14 days after application
In short: as §2

[15] = system: large crabgrass (Digitaria sanguinalis, DIGSA); test: as above; details: pre-emerge, phytotoxicity rating 0-100 at 14 days after application
In short: as §2

[16] = system: sicklepod (Cassia obtusifolia, CASOB); test: as above; details: pre-emerge, phytotoxicity rating 0-100 at 14 days after application
In short: as §2

[17] = system: barnyardgrass (Echinochloa crus-galli, ECHCG); test: as above; details: pre-emerge, phytotoxicity rating 0-100 at 14 days after application
In short: as §2

[18] = system: johnsongrass (Sorghum halepense, SORHA); test: as above; details: pre-emerge, phytotoxicity rating 0-100 at 14 days after application
In short: as §2

[19] = system: ivyleaf morningglory (Ipomoea hederacea, IPOHE); test: as above; details: pre-emerge, phytotoxicity rating 0-100 at 14 days after application
In short: as §2

[20] = system: redroot pigweed (Amaranthus retroflexus, AMARE); test: as above; details: pre-emerge, phytotoxicity rating 0-100 at 14 days after application
In short: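 Plants grown in 10 cm pots of sandy loam mix received acetone-dissolved compounds through a moving flat-fan nozzle. Doses ranged from 15 to 1000 g ai/ha. Pre-emerge pots were seeded one day earlier, post-emerge pots 8–21 days earlier. Fourteen days on, each pot was graded 0–100 for damage.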

[21] = system: upland rice (Oryza sp., var. Tebonnet, RICE); test: Post-emerge test, crop safety; details: post-emerge, crop damage rating 0-100 at 14 days after application
In short: as §2

[22] = system: field corn (Zea mays L., var. Dekalb 535, CORN); test: Post-emerge test, crop safety; details: post-emerge, crop damage rating 0-100 at 14 days after application
In short: as §2

In the case of COc1ccc(COC(=O)Nc2c(C)c(Cl)cc(F)c2-n2c(=O)cc(C(F)(F)F)n(C)c2=O)cc1OC [4-63], the “Post-emerge Herbicidal Activity SETVI” value ([1]; 63 g ai/ha) was 0, the “Post-emerge Herbicidal Activity SETVI” value ([1]; 250 g ai/ha) was 30 and the “Post-emerge Herbicidal Activity ABUTH” value ([2]; 63 g ai/ha) was 100. For the same compound, the “Post-emerge Herbicidal Activity ABUTH” value ([2]; 250 g ai/ha) was 100, the “Post-emerge Herbicidal Activity CHEAL” value ([3]; 63 g ai/ha) was 80 and the “Post-emerge Herbicidal Activity CHEAL” value ([3]; 250 g ai/ha) was 100. For the same compound, the “Post-emerge Herbicidal Activity DIGSA” value ([4]; 63 g ai/ha) was 0, the “Post-emerge Herbicidal Activity DIGSA” value ([4]; 250 g ai/ha) was 10 and the “Post-emerge Herbicidal Activity CASOB” value ([5]; 63 g ai/ha) was 60. For the same compound, the “Post-emerge Herbicidal Activity CASOB” value ([5]; 250 g ai/ha) was 100, the “Post-emerge Herbicidal Activity ECHCG” value ([6]; 63 g ai/ha) was 0 and the “Post-emerge Herbicidal Activity ECHCG” value ([6]; 250 g ai/ha) was 20. For the same compound, the “Post-emerge Herbicidal Activity AMARE” value ([7]; 63 g ai/ha) was 100, the “Post-emerge Herbicidal Activity AMARE” value ([7]; 250 g ai/ha) was 100 and the “Post-emerge Herbicidal Activity SORHA” value ([8]; 63 g ai/ha) was 0. The “Post-emerge Herbicidal Activity SORHA” value ([8]; 250 g ai/ha) was 10, the “Post-emerge Herbicidal Activity IPOHE” value ([9]; 63 g ai/ha) was 100 and the “Post-emerge Herbicidal Activity IPOHE” value ([9]; 250 g ai/ha) was 100. For the same compound, the “Pre-emerge Herbicidal Activity RICE” value ([10]; rate 63 g ai/ha) was 40, the “Pre-emerge Herbicidal Activity RICE” value ([10]; rate 250 g ai/ha) was 90 and the “Pre-emerge Herbicidal Activity CORN” value ([11]; rate 63 g ai/ha) was 0. For the same compound, the “Pre-emerge Herbicidal Activity CORN” value ([11]; rate 250 g ai/ha) was 35, the “Pre-emerge Herbicidal Activity SETVI” value ([12]; rate 63 g ai/ha) was 70 and the “Pre-emerge Herbicidal Activity SETVI” value ([12]; rate 250 g ai/ha) was 100. For the same compound, the “Pre-emerge Herbicidal Activity ABUTH” value ([13]; rate 63 g ai/ha) was 100, the “Pre-emerge Herbicidal Activity ABUTH” value ([13]; rate 250 g ai/ha) was 100 and the “Pre-emerge Herbicidal Activity CHEAL” value ([14]; rate 63 g ai/ha) was 100. For the same compound, the “Pre-emerge Herbicidal Activity CHEAL” value ([14]; rate 250 g ai/ha) was 100, the “Pre-emerge Herbicidal Activity DIGSA” value ([15]; rate 63 g ai/ha) was 70 and the “Pre-emerge Herbicidal Activity DIGSA” value ([15]; rate 250 g ai/ha) was 95. For the same compound, the “Pre-emerge Herbicidal Activity CASOB” value ([16]; rate 63 g ai/ha) was 40, the “Pre-emerge Herbicidal Activity CASOB” value ([16]; rate 250 g ai/ha) was 100 and the “Pre-emerge Herbicidal Activity ECHCG” value ([17]; rate 63 g ai/ha) was 30. The “Pre-emerge Herbicidal Activity ECHCG” value ([17]; rate 250 g ai/ha) was 70, the “Pre-emerge Herbicidal Activity SORHA” value ([18]; rate 63 g ai/ha) was 30 and the “Pre-emerge Herbicidal Activity SORHA” value ([18]; rate 250 g ai/ha) was 50. For the same compound, the “Pre-emerge Herbicidal Activity IPOHE” value ([19]; rate 63 g ai/ha) was 40, the “Pre-emerge Herbicidal Activity IPOHE” value ([19]; rate 250 g ai/ha) was 100 and the “Pre-emerge Herbicidal Activity AMARE” value ([20]; rate 63 g ai/ha) was 100. For the same compound, the “Pre-emerge Herbicidal Activity AMARE” value ([20]; rate 250 g ai/ha) was 100, the “Post-emerge Herbicidal Activity RICE” value ([21]; 63 g ai/ha) was 10 and the “Post-emerge Herbicidal Activity RICE” value ([21]; 250 g ai/ha) was 60. The “Post-emerge Herbicidal Activity CORN” value ([22]; 63 g ai/ha) was 10 and the “Post-emerge Herbicidal Activity CORN” value ([22]; 250 g ai/ha) was 30.
